Assays:
[1] = tested on: Human Umbilical Vein Endothelial Cells (HUVEC); assay: IL-8 ELISA on primary cultured HUVEC treated with lysolipids; assay type: cell-based; conditions: 5 μM, 6 hr
Procedure: Plating, Pretreatment and Treatment of HUVEC
Procedures were followed as detailed above in “Procedure #1 for HeLa Cells” with the following exceptions:
Cells were plated at 20,000 cells/well into 24-well plates. The next day, cells were serum-starved overnight in EBM medium (Clonetics) with 0.5% FBS, and then treated in EBM without FBS for 6 hr with the following lysolipids:
Supematants were collected and IL-8 levels were deternined using ELISA as described previously.

HL-60 cells = assay: IL-8 ELISA on HL-60 cells; assay type: cell-based, human; conditions: 1, 6 or 24 hr, S1P or LPA up to 3 μM, TNF-α 10 ng/ml
Procedure: Procedure for HL-60 Cells:
Cells: HL-60 (promyelocytic, human) suspension cells
Media: RPMI 1640 medium with 2 mM L-glutamine adjusted to contain 4.5 g/L glucose, 10 mM HEPES, and 1.0 mM sodium pyruvate+10% FBS
1) Cells were plated at a density of 0.25×10^6 cells/ml.
2) Cell pellcts were resuspended in 0.5% FBS media at a density of approximately 1×10^6 cells/ml.
1) Made up all required solutions in 0.5% FBS media (control).
2) 1.4 ml appropriate treatments were added to each well of a 6-well plate.
5) 100 μl cell suspension was added to each well.
7) After the specified time cell supematants were collected into 1.5 ml eppendorf tubes, spun down at 14000 rpm for 5 minutes and stored at −20° C.
D. Refer to Procedure #1 For HeLa Cells (D).

293-EBNA cells = assay: IL-8 production in untransfected 293-EBNA cells; assay type: cell-based
[2] = tested on: 293-EBNA cells transfected with empty expression vector pcDNA3; assay: NF-κB luciferase reporter in 293-EBNA cells, empty vector pcDNA3; assay type: cell-based; conditions: pcDNA3; 10 μM LPA; overnight
Procedure: Monolayer Transient Transfection Protocol for 293-EBNA
2) 6.6 μg NF-κB-tk-p4Luc reporter DNA and 6.6 μg of pC3-redg4 (expressing rat EDG-4), or pcDNA3 DNA was diluted in 500 μl OPTI-MEM (Gibco; Cat. 31985-062)
2) After 6 hrs, media was removed and cells treated with compounds diluted in 0.5% FBS media (140 μl added to each well).
3) Cells were treated for 24 hrs.
1) Luclite kit (Packard; Cat. 6016911) was used for luciferase assay. All reagents were brought to room temperature before use.
7) After incubation, plates were counted in a 12-detector Packard Top Count on a program without dark delay.
(§1) The above protocol for assay 1 was followed except for the following changes:
(§2) 2) 3 μg NFκB-tk-p4Luc reporter DNA and 3 μg pC3-hedg1, pC3-hedg3, pC3-redg4, pC3-hedg5 or pcDNA3 DNA was diluted in 240 μl OPTI-MEM (Gibco; Cat. 31985-062)
(§3) 2) SRE Cotransfection: 0.5 μg of 2XSREtk-p4Luc-zeo reporter DNA and 3.5 μg pcDNA3, EDG-1, EDG-3 (pC3-hE3HP2, different from the clone used in Assay 2 of Example 11) or the newly cloned human EDG-4 (pC3-hedg4#36); NF-κB Cotransfection: 2 μg 6XNFκBtk-p4Luc-zeo reporter DNA and 2.0 μg pcDNA3, EDG-1, EDG-3 (pC3-hE3HP2), or EDG-4 (pC3-hedg4#36). Expression plasmid and reporter plasmid DNA samples were combined and diluted in 750 μl of DMEM/F12 (serum free media) and 20 μl Plus Reagent (Lipofectamine Plus Kit, Life Technologies Cat. 10964-013), and incubated at room temperature for 15 min.
(§4) 1) Media was removed and cells treated with compounds diluted in DMEM/F12 media.
(§5) 2) The cells were treated for 6 hours.
(§6) 293-EBNA cells were grown, lipofected in monolayer cultures, and pretreated as described above for Example 11, assay #1, except that NF-κB and AP-1 reporter-transfected cells were pretreated for 6 hr in medium containing 0.5% FBS, then treated overnight in the same medium with or without 10 μM LPA.

EDG-5 [3] = biological target: T1, EDG-5 (Homo sapiens, UniProt Q9UBY5); assay: NF-κB luciferase reporter in 293-EBNA cells, EDG-5; assay type: cell-based; conditions: 10 μM LPA, overnight
T1 construct: expressed in transfected cells; host or cells: 293-EBNA
T1 sequence (Q9UBY5 1-353): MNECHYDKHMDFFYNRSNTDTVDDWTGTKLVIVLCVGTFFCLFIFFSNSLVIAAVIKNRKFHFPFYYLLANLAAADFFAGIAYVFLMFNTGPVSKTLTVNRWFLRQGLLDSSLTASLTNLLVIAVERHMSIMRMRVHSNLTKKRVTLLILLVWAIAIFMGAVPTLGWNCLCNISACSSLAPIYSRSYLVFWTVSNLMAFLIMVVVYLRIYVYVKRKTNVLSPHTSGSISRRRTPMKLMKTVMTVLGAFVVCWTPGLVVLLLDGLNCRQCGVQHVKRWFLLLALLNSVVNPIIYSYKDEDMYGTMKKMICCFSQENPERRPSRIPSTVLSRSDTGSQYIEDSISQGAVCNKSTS
Procedure: Transient Transfection Protocol for 293-EBNA
as §1, §2
1) 0.01×10^6 cells were plated per well of a 96-well Blackview plate coated with polyD-lysine. No cells were plated in the outside wells of the 96-well plate.
LPA, like S1P, is abundant in serun, but not plasma. Moreover, LPA is produced as a consequence of phospholipase A2 with or without the contribution of phospholipase D (depending on the phospholipid substrate). […] To date we have identified three subtypes of edg receptors that respond to LPA as an agonist. These are EDG-2, EDG-6 and EDG-5 (referred to also as LPA1, LPA2 and LPA3, respectively (Chun, J, Contos, J J A and Munroe, D G. 1998. A growing family of receptor genes for lysophosphatidic acid (LPA) and other lyso-phospholipids. Cell Biochem Biophys (in press)). The EDG-5 receptor is set out in co-pending U.S. application Ser. No. 08/997,803 to MLUNROE et al., incorporated herein by reference and the amino acid sequence and cDNA sequence for the EDG-6 receptor is set out in FIGS. 21 and 22, respectively. To determine whether these receptors might mediate inflammatory responses, each was cotransfected separately with SRE, NF-κB or AP-1 reporter genes. […]

[4] = tested on: 293-EBNA cells transfected with empty expression vector pcDNA3; assay: SRE luciferase reporter in 293-EBNA cells, empty vector pcDNA3; assay type: cell-based; conditions: 10 μM LPA
Procedure: NE-κB activates gene expression by binding to specific DNA sequences found in the promoters of genes regulated by this inflammation-related transcription factor. […] The SRE reporter was identical to the NF-κB reporter, except that the NF-κB binding sites were replaced with 2 SRE sites. The new reporter was called 2XSREtk-p4Luc-zeo.
The protocol described in Example 11 for Assay 1 was followed except for the following changes:
as §3, §4, §5
Transfection was accomplished using the Lipofectamine Plus kit (Life Technologies, Cat. 10964-013), using the manufacturer's recommended conditions.
as §6

EDG-2 [5] = biological target: T2, EDG-2 (Homo sapiens, UniProt Q92633); assay: NF-κB reporter in 293-EBNA cells, EDG-2; assay type: cell-based; conditions: 10 μM LPA, overnight
T2 construct: expressed in transfected cells; host or cells: 293-EBNA
Text: (§7) LPA, like S1P, is abundant in serun, but not plasma. Moreover, LPA is produced as a consequence of phospholipase A2 with or without the contribution of phospholipase D (depending on the phospholipid substrate). […] To date we have identified three subtypes of edg receptors that respond to LPA as an agonist. These are EDG-2, EDG-6 and EDG-5 (referred to also as LPA1, LPA2 and LPA3, respectively (Chun, J, Contos, J J A and Munroe, D G. 1998. A growing family of receptor genes for lysophosphatidic acid (LPA) and other lyso-phospholipids. Cell Biochem Biophys (in press)). The EDG-5 receptor is set out in co-pending U.S. application Ser. No. 08/997,803 to MLUNROE et al., incorporated herein by reference and the amino acid sequence and cDNA sequence for the EDG-6 receptor is set out in FIGS. 21 and 22, respectively. To determine whether these receptors might mediate inflammatory responses, each was cotransfected separately with SRE, NF-κB or AP-1 reporter genes. […] This transcription factor, like NF-κB has been implicated in inflammatory and neoplastic signal transduction., though the gene targets of its action are largely distinct from those of NF-κB (Adcock IM. 1997. Transcription factors as activators of gene transcription: AP-1 and NF-κB. Monaldi Arch Chest Dis 52:178-186. Review). […]

EDG-6 [6] = assay: NF-κB reporter in 293-EBNA cells, EDG-6; assay type: cell-based, human; conditions: 10 μM LPA, overnight
Text: as §7
Target sequence in this assay (Q9HBW0 1-340 limits assumed): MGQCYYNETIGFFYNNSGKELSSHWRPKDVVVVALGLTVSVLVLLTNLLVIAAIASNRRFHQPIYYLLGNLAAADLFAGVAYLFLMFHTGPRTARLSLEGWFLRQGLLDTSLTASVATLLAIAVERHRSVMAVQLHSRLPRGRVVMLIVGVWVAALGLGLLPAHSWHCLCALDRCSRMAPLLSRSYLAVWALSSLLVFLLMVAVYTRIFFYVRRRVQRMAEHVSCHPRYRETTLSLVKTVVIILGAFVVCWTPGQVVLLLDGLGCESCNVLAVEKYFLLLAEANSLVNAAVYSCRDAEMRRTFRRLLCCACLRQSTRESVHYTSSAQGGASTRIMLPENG

EDG-2 [7] = biological target: T2, EDG-2; assay: SRE reporter in 293-EBNA cells, EDG-2; assay type: cell-based; conditions: 10 μM LPA
Text: as §7

EDG-5 [8] = biological target: T1, EDG-5; assay: SRE reporter in 293-EBNA cells, EDG-5; assay type: cell-based; conditions: 10 μM LPA
Text: as §7

EDG-6 [9] = assay: SRE reporter in 293-EBNA cells, EDG-6; assay type: cell-based, human; conditions: 10 μM LPA
Text: as §7
Target sequence in this assay (Q9HBW0 1-330 limits assumed): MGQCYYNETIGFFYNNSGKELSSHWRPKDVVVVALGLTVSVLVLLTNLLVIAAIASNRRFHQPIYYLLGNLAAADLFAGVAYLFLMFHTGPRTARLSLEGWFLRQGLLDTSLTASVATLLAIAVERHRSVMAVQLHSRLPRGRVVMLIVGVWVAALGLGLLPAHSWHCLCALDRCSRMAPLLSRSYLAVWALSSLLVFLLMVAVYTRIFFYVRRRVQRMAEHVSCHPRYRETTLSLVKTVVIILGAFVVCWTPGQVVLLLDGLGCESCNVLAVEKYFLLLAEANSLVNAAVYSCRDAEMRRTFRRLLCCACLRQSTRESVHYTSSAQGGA

EDG-2 [10] = biological target: T2, EDG-2; assay: AP-1 reporter in 293-EBNA cells, EDG-2; assay type: cell-based; conditions: 10 μM LPA
Text: as §7

EDG-5 [11] = biological target: T1, EDG-5; assay: AP-1 reporter in 293-EBNA cells, EDG-5; assay type: cell-based; conditions: 10 μM LPA
Text: as §7

EDG-6 [12] = assay: AP-1 reporter in 293-EBNA cells, EDG-6; assay type: cell-based, human; conditions: 10 μM LPA
Text: as §7
Target sequence in this assay (Q9HBW0 1-340 limits assumed): as the sequence (Q9HBW0 1-340 limits assumed) above

[13] = tested on: 293-EBNA cells transfected with empty expression vector pcDNA3; assay: AP-1 reporter in 293-EBNA cells, empty vector pcDNA3; assay type: cell-based; conditions: 10 μM LPA
Text: as §7

T2 sequence (Q92633 whole entry): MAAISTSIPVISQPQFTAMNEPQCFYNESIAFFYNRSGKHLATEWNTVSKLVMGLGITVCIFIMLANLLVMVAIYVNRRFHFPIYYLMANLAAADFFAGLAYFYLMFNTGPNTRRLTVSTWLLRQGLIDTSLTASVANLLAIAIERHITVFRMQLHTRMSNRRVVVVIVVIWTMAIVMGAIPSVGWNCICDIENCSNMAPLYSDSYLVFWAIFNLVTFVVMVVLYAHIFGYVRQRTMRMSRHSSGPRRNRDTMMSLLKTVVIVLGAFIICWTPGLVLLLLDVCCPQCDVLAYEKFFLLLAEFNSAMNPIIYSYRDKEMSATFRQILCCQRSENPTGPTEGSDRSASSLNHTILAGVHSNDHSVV

lysophosphatidic acid [LPA]
IL-8 levels increase over untreated controls [1]: 3 fold | IL-8 release (HL-60 cells): no such release | IL-8 production (293-EBNA cells): no IL-8 production | NF-κB reporter response in control cells [2]: no response to LPA | Activation of the NF-κB reporter (EDG-5 [3]): 3-4 fold | Endogenous SRE reporter response vs untreated control cells [4]: about 1.5 fold | Activation of the NF-κB reporter (EDG-2 [5]): 3-4 fold | Activation of the NF-κB reporter (EDG-6 [6]): 3-4 fold | Induction of the SRE reporter (EDG-2 [7]): greater than 2 fold | Induction of the SRE reporter (EDG-5 [8]): greater than 2 fold | SRE reporter induction (EDG-6 [9]): strongly induced both reporters | Induction of the AP-1 reporter (EDG-2 [10]): greater than 2 fold | Induction of the AP-1 reporter (EDG-5 [11]): greater than 2 fold | AP-1 reporter induction (EDG-6 [12]): strongly induced both reporters | Endogenous AP-1 reporter response vs untreated control cells [13]: about 1.5 fold

— patent publication US6482609B1, “Isolated human EDG-4 receptor and polynucletide encoding said receptor” (priority 1997, dated 2002)
